Experimental data reported in ChEMBL document CHEMBL5247624, “N-sulfonylpiperidinedispiro-1,2,4,5-tetraoxanes exhibit potent in vitro antiplasmodial activity and in vivo efficacy in mice infected with P. berghei ANKA” (Eur J Med Chem, 2022).

What follows are molecules tested on Plasmodium falciparum (assay: Antiplasmodial activity against erythrocytic stage of chloroquine-sensitive Plasmodium falciparum 3D7 assessed as inhibition of parasite growth incubated for 3 days by HRP2-ELISA assay). Details: 3D7, 72 h.
Type: functional, organism-based
Molecule `CS(=O)(=O)N1CCC2(CC1)OOC1(CCCC1)OO2` has an IC50 of 41.9 nM.
`O=S(=O)(Cc1ccccc1)N1CCC2(CC1)OOC1(CCCC1)OO2` was tested, and the IC50 was 20.6 nM.
Work on `C[C@H]1[C@@H](O)O[C@@H]2O[C@@]3(C)CC[C@H]4[C@H](C)CC[C@@H]1[C@@]24OO3` [ARTENIMOL] yielded an IC50 of 0.7 nM.
`Cc1ccc(S(=O)(=O)N2CCC3(CC2)OOC2(CCCCCC2)OO3)cc1` gave an IC50 of 55.3 nM.
With `CCCS(=O)(=O)N1CCC2(CC1)OOC(C)(c1ccc(Cl)cc1)OO2` the IC50 was 8360 nM.
`O=S(=O)(CCCCl)N1CCC2(CC1)OOC1(CCCCC1)OO2` gave an IC50 of 40.6 nM.
`CCCCS(=O)(=O)N1CCC2(CC1)OOC1(CCCCCC1)OO2` showed an IC50 of 13.8 nM.
Molecule `C[C@@H]1CC[C@H]2[C@@H](C)C(=O)O[C@@H]3O[C@@]4(C)CC[C@@H]1[C@]32OO4` [ARTEMISININ] has an IC50 of 4.74 nM.
`COc1ccc(S(=O)(=O)N2CCC3(CC2)OOC2(CCCCCC2)OO3)cc1` was tested, and the IC50 was 46.6 nM.
Molecule `CCCS(=O)(=O)N1CCC2(CC1)OOC(C)(CC)OO2` has an IC50 of 23.3 nM.
`O=S(=O)(Cc1ccccc1)N1CCC2(CC1)OOC1(CCCCC1)OO2` was tested, and the IC50 was 49.4 nM.
`CCCCS(=O)(=O)N1CCC2(CC1)OOC1(CCCCC1)OO2` was tested, and the IC50 was 57.2 nM.
`C[C@H]1[C@H](OC(=O)CCC(=O)O)O[C@@H]2O[C@@]3(C)CC[C@H]4[C@H](C)CC[C@@H]1[C@@]24OO3` [ARTESUNATE] gave an IC50 of 3.3 nM.
`CCS(=O)(=O)N1CCC2(CC1)OOC1(CCCCCC1)OO2` showed an IC50 of 62.5 nM.
`O=S(=O)(c1ccc(F)cc1)N1CCC2(CC1)OOC1(CCCCCC1)OO2` gave an IC50 of 37.4 nM.
`Cc1ccc(S(=O)(=O)N2CCC3(CC2)OOC2(CCCC2)OO3)cc1` was tested, and the IC50 was 24.2 nM.
`Cc1ccc(S(=O)(=O)N2CCC3(CC2)OOC2(CCCCC2)OO3)cc1` was tested, and the IC50 was 40.2 nM.
With `CCCS(=O)(=O)N1CCC2(CC1)OOC1(CCCC1)OO2` the IC50 was 9450 nM.
Work on `CCCS(=O)(=O)N1CCC2(CC1)OOC(C)(C(C)C)OO2` yielded an IC50 of 21.4 nM.
`CS(=O)(=O)N1CCC2(CC1)OOC1(CCCCC1)OO2` gave an IC50 of 16.3 nM.
Work on `CCCS(=O)(=O)N1CCC2(CC1)OOC(C)(c1ccccc1)OO2` yielded an IC50 of 129 nM.

The molecules below were run on Huh-7 (assay: Cytotoxicity against human Huh-7 cells assessed as reduction in cell viability incubated for 72 hrs by MTT assay). Details: not given.
Type: functional
`CS(=O)(=O)N1CCC2(CC1)OOC1(CCCC1)OO2` gave a CC50 of over 100 µg/mL.
Molecule `O=S(=O)(Cc1ccccc1)N1CCC2(CC1)OOC1(CCCC1)OO2` has a CC50 of over 100 µg/mL.
For `C[C@H]1[C@@H](O)O[C@@H]2O[C@@]3(C)CC[C@H]4[C@H](C)CC[C@@H]1[C@@]24OO3` [ARTENIMOL], the CC50 was over 100 µg/mL.
Work on `Cc1ccc(S(=O)(=O)N2CCC3(CC2)OOC2(CCCCCC2)OO3)cc1` yielded a CC50 of over 100 µg/mL.
In the case of `CCCS(=O)(=O)N1CCC2(CC1)OOC(C)(c1ccc(Cl)cc1)OO2`, the CC50 is reported as over 100 µg/mL.
`O=S(=O)(CCCCl)N1CCC2(CC1)OOC1(CCCCC1)OO2` showed a CC50 of over 100 µg/mL.
For `CCCCS(=O)(=O)N1CCC2(CC1)OOC1(CCCCCC1)OO2`, the CC50 was over 100 µg/mL.
Work on `COc1ccc(S(=O)(=O)N2CCC3(CC2)OOC2(CCCCCC2)OO3)cc1` yielded a CC50 of over 100 µg/mL.
For `CCCS(=O)(=O)N1CCC2(CC1)OOC(C)(CC)OO2`, the CC50 was over 100 µg/mL.
`O=S(=O)(Cc1ccccc1)N1CCC2(CC1)OOC1(CCCCC1)OO2` showed a CC50 of over 100 µg/mL.
Work on `CCCCS(=O)(=O)N1CCC2(CC1)OOC1(CCCCC1)OO2` yielded a CC50 of over 100 µg/mL.
Molecule `C[C@H]1[C@H](OC(=O)CCC(=O)O)O[C@@H]2O[C@@]3(C)CC[C@H]4[C@H](C)CC[C@@H]1[C@@]24OO3` [ARTESUNATE] has a CC50 of over 100 µg/mL.
`CCS(=O)(=O)N1CCC2(CC1)OOC1(CCCCCC1)OO2` was tested, and the CC50 was over 100 µg/mL.
With `O=S(=O)(c1ccc(F)cc1)N1CCC2(CC1)OOC1(CCCCCC1)OO2` the CC50 was over 100 µg/mL.
With `Cc1ccc(S(=O)(=O)N2CCC3(CC2)OOC2(CCCC2)OO3)cc1` the CC50 was over 100 µg/mL.
For `Cc1ccc(S(=O)(=O)N2CCC3(CC2)OOC2(CCCCC2)OO3)cc1`, the CC50 was over 100 µg/mL.
Work on `CCCS(=O)(=O)N1CCC2(CC1)OOC1(CCCC1)OO2` yielded a CC50 of over 100 µg/mL.
For `CCCS(=O)(=O)N1CCC2(CC1)OOC(C)(C(C)C)OO2`, the CC50 was over 100 µg/mL.
`CS(=O)(=O)N1CCC2(CC1)OOC1(CCCCC1)OO2` was tested, and the CC50 was over 100 µg/mL.
With `CCCS(=O)(=O)N1CCC2(CC1)OOC(C)(c1ccccc1)OO2` the CC50 was over 100 µg/mL.

The molecules below were run on Plasmodium berghei (assay: Antiplasmodial activity against Plasmodium berghei infected in Swiss Webster mouse assessed as reduction of parasitaemia by measuring partial cure at 2 mg/kg/day,po administrated for 4 days). Details: time 4 day.
Type: functional
Set-up: scale not given: the % may be the effect or the level left
`CC(C)(N)CNC(=O)O[C@@H]1CCC[C@]2(C1)OOC1(O2)C2CC3CC(C2)CC1C3` (stereo partly drawn) gave an Activity of 100%.

What follows are molecules tested on Plasmodium falciparum (assay: Antiplasmodial activity against Plasmodium falciparum W2 infected in human RBC assessed as inhibition of parasite growth incubated for 48 hrs by flow cytometry). Details: W2, Erythrocyte.
Type: functional, organism-based
`CC(C)(N)CNC(=O)O[C@@H]1CCC[C@]2(C1)OOC1(O2)C2CC3CC(C2)CC1C3` (stereo partly drawn) gave an EC50 of 1.8 nM.
